In series [1] the test system is Basal cell cancer of skin. Particulars: clinical PDT, topical; cited from earlier work.
The test system of series [2] is Barrett's oesophagus cancer. Particulars: clinical PDT, systemic; cited from earlier work.
For series [3] the following is noted: in vivo; cited from earlier work.
Series [4] concerns the target Her-2 receptor (human) (UniProt P04626). The series is described as follows: cell-based or functional assay.
For series [5], the system named is Chest wall recurrence in breast cancer. Particulars: clinical PDT; cited from earlier work.
The subject of series [6] is Oral cancer. Particulars: clinical PDT, over 5-53 months; cited from earlier work.
In series [7] the test system is Bladder cancer. Conditions: clinical PDT; cited from earlier work.
The nature of series [8]: Fluorescence of conjugates in PBS (excitation 410 nm, emission 680 nm). Conditions: measured in PBS buffer. It counts as physicochemical. The procedure: • 1. Serial dilutions (halving concentrations) of the conjugates were made in PBS and the fluorescence was measured at an excitation wavelength of 410 nm and an emission wavelength of 680 nm. • 2. These were compared to free PPa in PBS. Examples are shown for c6.5 scFv-PPa (FIG. 11) and MFE scFv-PPA (+/− benzoic acid) (FIG. 12)

Series [9] concerns KB cells. The series is described as follows: Immunofluorescent microscopy, HER-2-negative cells. It counts as cell-based, human. Conditions: 1 hour incubation; images and emission spectra. The procedure:
FIG. 24—Immunofluorescent microscopy of C6.5-PPa photo-immunoconjugate Antigen negative KB cells (A-D) or antigen positive SKOV3 cells (E-J) were incubated with free PPa or C6.5-PPa photo-immunoconjugate for 1 hour. Images and emission spectra were recorded.
• 1. Round coverslips were washed in ethanol and rinsed in PBS. Coverslips were then placed in 12-well tissue culture plates. • 2. SKOV3 cells were trypsinised and washed with PBS. The cell pellet was resuspended in McCoy's media and cells were seeded onto the coverslips at 2×10^5 cells/ml. The cells were incubated overnight at 37° C. and 5% CO2. • 3. The coverslips with the adherent cells were rinsed carefully in PBS and either C6-PPa or PBS was added to the wells. The cells were incubated at 37° C. and 5% CO2 for 30 minutes after which time they were washed carefully with PBS. • 4. The cells were fixed onto the coverslips by incubating in 2 ml 4% paraformaldehyde for 60 minutes at room temperature. After this time, the coverslips were washed with PBS and inverted cell-side down onto glass slides. The edges of the coverslips were then sealed using nail varnish. • 5. Fluorescence imaging was then performed using an Ar+ laser (418 nm) as excitation source, using a Leica laser scanning confocal microscope, images are shown in FIGS. 20 and 24, and the emission spectrum is shown in FIGS. 21 and 24.

Series [10] has as its system vision loss associated with AMD. Particulars: PDT compared to the placebo control; cited from earlier work.
Series [11] has as its system KB cells. The series is described as follows: In vitro PDT cell killing (Cytotox-96), antigen-negative cells. The class given is cell-based, human. Conditions: 30 min incubation, laser light 2 min, 1.4 J/cm^2, cell kill assay after 48 hours. The procedure: (§1) • 1. […] The flask was incubated at 37° C., 5% CO2 for 15 mins or until the cells had detached from the flask. The cells were then placed in a 50 ml Falcon tube and the trypsin deactivated by adding 15 ml DMEM or McCoy's medium. • 3. Cells (20 μl) were taken out of the tube and placed on a haemocytometer for counting. The remaining cells were harvested at 1800 g for 10 min at room temperature and the pellet gently resuspended in 1 ml of DMEM or McCoy's medium. The cells were thoroughly resuspended and a further 19 ml of DMEM or McCoy's medium added. The cells were diluted in DMEM or McCoy's medium accordingly to give 2×10^6 cells/ml. Cells (50 μl) were then added to each well of a 96 well plate and incubated overnight at 37° C. and 5% CO2. • 4. […] Cells were washed once with PBS and 50 μl of the conjugate added to wells in quadruplicate. Control wells were also included (wells with conjugate added but not exposed to light, and wells with neither conjugate added nor exposed to light). […] Cells were incubated in the conjugate or free PS (concentration varies) for 30 min at 37° C., 5% CO2 and then washed 3 times with PBS. […] The PBS was removed from each well and 100 μl of DMEM or McCoy's medium added. The plates were loosely wrapped in foil, but covered adequately so that no ambient light could enter.

Series [12] concerns SKOV3 cells. The series is described as follows: In vitro PDT cell killing (Cytotox-96), antigen-positive cells. It counts as cell-based, human. Particulars: 30 min incubation, laser light 2 min, 1.4 J/cm^2, cell kill assay after 48 hours. The procedure: as §1
For series [13], the system named is Barrett's mucosal cancer. Conditions: clinical PDT; cited from earlier work.

The IC50 is the concentration that gives 50% inhibition.

With `NCC(=O)CCC(=O)O` [ALA, 5-aminolaevulinic acid], the complete response in series [1] is listed as 90% complete response. In addition, in series [2], the High-grade dysplasia result is “erradicated in all patients”.
As for `Oc1cccc(-c2c3nc(c(-c4cccc(O)c4)c4ccc([nH]4)c(-c4cccc(O)c4)c4nc(c(-c5cccc(O)c5)c5ccc2[nH]5)CC4)C=C3)c1` [Foscan™, meta-tetrahydroxyphenyl chlorin], the skin photosensitivity result in series [3] is recorded as “about 2 weeks”.
As to “C6.5 scFv-Verteporfin (Visudyne™) conjugate”, the IC50 of in vitro PDT cell killing on antigen-positive SKOV3 cells in series [4] was found to be 2.2 µM.
Regarding Dihematoporphyrin ether, the complete response was 20% complete response, in series [5] and 87% complete response in series [6]. Also, in series [5], the partial response is given as 45% partial response.
As for Hematoporphyrin derivative, in series [7], the “alive after 5 years” value is recorded as 30% alive after 5 years and the complete response is on record as 74% complete response,.
As for Pyropheophorbide a [PPa], in [8], the “fluorescence / photophysical properties” value is on record as “does not fluoresce significantly”. In series [9], the “uptake of PPa, KB cells vs SKOV3 cells” value is “over 2 fold”.
For the compound “benzoporphyrin derivative mono acid [Verteporfin (Visudyne™)]”, the “recovering vision loss associated with AMD” value in series [10] is “more effective”. The IC50 in [11] is 10 µM; in series [12], 15.3 µM.
Regarding porfimer sodium, in series [13], the “conversion to normal epithelium” value is given as 75% conversion to normal and the tumours result is on record as “eliminated”.

The record behind these values is patent US8703427B2, “Biological materials and uses thereof” (PhotoBiotics Limited, priority 2005, dated 2014).
